The record followed here is a melting point compilation (Tetko et al.; mined from patent text by program, amines drawn as free bases though some values may be those of a salt).

In general, melting point refers to the temperature, or range, at which the solid turns liquid. `CCOC(=O)CCc1cccc2c(=O)c3cc(C(=O)OC)c(OCCCCC=Cc4ccc(OC)cc4)cc3oc12` returned a melting point of 107 to 109 °C.
The same measure for `Cc1cc(O)c2cccc(OCc3c(Cl)ccc([N+](=O)[O-])c3Cl)c2n1`: 255 to 258 °C; for `Cc1ccc2c(c1O)NC(O)C1CCCN1C2=O` (configuration not stated): 154 to 156 °C.
`Cc1ccc(S(=O)(=O)N2CCCC2c2cccc(C)c2)cc1` (racemic) came in with a melting point of 79 °C.
In the case of `O=Cc1cccn1-c1ccc(F)cc1`, the melting point was in the range of 82 to 83 °C.
`CNCCCn1c(-c2ccc(Br)cc2)csc1=Nc1ccccc1` showed a melting point of 143 to 148 °C.
As to `O=C(O)c1cccc(C[C@@H]2COc3ccc(OCc4ccccn4)cc3[C@@H]2O)c1` (relative stereo), the melting point was 196 to 198 °C.
In turn, `COc1ccc(COCc2nc(C(C)C)c(Sc3cc(Cl)cc(Cl)c3)n2C)cc1` registered a melting point of 79 to 80 °C.
In turn, `CCCCCCCCC1CC(c2ccc(-c3ccc(CCCCC)cc3)cc2)OC1=O` (configuration not stated) registered a melting point of 114 to 118 °C.
The value for `CCCCCCCCCCCCCCCCCCOc1cc(C(N)=O)cc(N(CC(=O)O)CC(=O)O)c1` was 213 to 216 °C.
In the case of `O=C(OCC1CC(O)C(n2cc(F)c(=O)[nH]c2=O)O1)c1ccccc1` (configuration not stated), the melting point is 154 to 156 °C.
In the case of `O=C1NC(=O)c2c1ccc1[nH]c3ccc(O)cc3c21`, the melting point was in the range of 335 to 345 °C.
Consider `O=C(Cn1c(-c2cccc(Cl)c2)nc2cccnc21)N1CCCCC1`, for which the melting point was in the range of 140 to 150 °C.
Regarding `CCOC(=O)c1cc2cc(NC(C)=O)ccc2n1C(=O)OC(C)(C)C`, the melting point was in the range of 122 to 123 °C.
In turn, `CN1CCc2c(c3cc(F)ccc3n2CCc2nc(-c3ccccc3)cs2)C1` yielded a melting point of 136 to 137 °C.
The molecule `COc1ccc(-c2nc(CNC(C)(C)C)nc3cc(OC)c(OC)cc23)cc1OC` showed a melting point of 120 to 122 °C.
Molecule `COc1ccc(-n2c(CF)nc3ccc([N+](=O)[O-])cc3c2=O)c(C)c1` came in with a melting point of 190 to 192 °C.
As for `CC1(C)CCC(C)(C)c2cc(C(COc3ccc(C(=O)O)c(O)c3)=NO)ccc21`, the melting point fell in the range of 220 to 222 °C.
`Fc1ccc(C(=C(c2ccccc2)c2ccc(OCCN3CCOCC3)cc2)C(F)(F)F)cc1` gave a melting point of 67 to 69 °C.
In turn, `CC1(C)C2=C(Cl)C(=O)C(Cl)=CC2=Nc2ccc(O)cc21` showed a melting point of under 250 °C.
The value for `CCCOC(=O)Nc1nc2ccccc2c2c1nc(CC)n2CCCCNS(C)(=O)=O` was 155 to 157 °C.
`COc1cc(C(=O)NC2CC2)c(Cl)cc1O` showed a melting point of 214 to 216 °C.
In turn, `O=[N+]([O-])c1ccc2oc(-c3cccs3)nc2c1` had a melting point of 186 to 188 °C.
`CCCCC[C@H](CC(=O)Nc1c(F)cc(F)cc1F)c1cccc2c1OCO2`: the melting point was in the range of 88 to 89 °C.
In turn, `CCOC(=O)c1c(C(=O)O)c2c(OCc3ccccc3)ccc3c(CC)c(-c4ccc(OCc5ccccc5)cc4)c1n32` showed a melting point of 171 to 173 °C.
`CN1CCN=C(c2ccc([N+](=O)[O-])cc2)C1=O` returned a melting point of 191 to 192 °C.
The molecule `CC(C)(C)NC(=S)Nc1cccc(SCCCC#N)n1` came in with a melting point of 156 to 157 °C.
In turn, `ON=C(c1ccccc1)c1cc(F)cc(F)c1` had a melting point of 91 to 93 °C.
With `[N-]=[N+]=CC(=O)c1ccc(Br)c(S(N)(=O)=O)c1`, the melting point came to 152 °C.
The value for `O=c1c(Cl)c(OCc2ccc(F)cc2F)ccn1Cc1cccc2cnccc12` was 235 to 238 °C; that for `COC(=O)C=Cc1ccc(NC(C)=O)c(OC)c1` was 137 °C; that for `C[Si](C)(C)C#Cc1cc2ccc(-n3nc4ccc5ccccc5c4n3)cc2oc1=O` was 250 to 252 °C.
As for `CC(C)Cn1nnc2c3ncnc-3c3ccncc3n21`, the melting point lay in the range of 181 to 182 °C.
`CN(C(=O)c1ccc2nonc2c1)C1CCCCC1=O` (configuration not stated) came in with a melting point of 144 to 145 °C.
For the molecule `CCNc1nc(SC)ncc1C=Nc1cc(OC)cc(OC)c1Cl`, the melting point was 196 to 198 °C.
Turning to `CCOc1cc(C(CC(=O)O)N2Cc3cccc(NC(C)=O)c3C2=O)ccc1OC(F)F` (configuration not stated), the melting point was 105 to 107 °C.
The same measure for `COCCOc1c(C)c(N2CCN(c3ccc(C)cc3)CC2)c(C)c2c1OC(C)(C)C2`: 118 to 120 °C.
